We go through three molecules from article PMC3525792 (Bioorganic & medicinal chemistry letters, 2012).

A short description of one data set: fluorescent properties. The data set is classed as physicochemical.
A further data set has as its target SERT. The following applies: read-out: SERT binding Ki; cited from earlier work.
Substrate in data set [1]: NCCc1ccc(O)c(O)c1
Nature of the data set: cells, lysate or membranes. The following applies: other: substrate KM, determined in parallel; mean [SE interval].

In the data set “fluorescent properties”, `CCN(CC)c1ccc2c(-c3ccc(S(=O)(=O)NCCCCCC(=O)NCCC(=O)Nc4cccc(-c5ccc6c(c5)COC6(CCCN(C)C)c5ccc(F)cc5)c4)cc3S(=O)(=O)[O-])c3ccc(=[N+](CC)CC)cc-3oc2c1` (stereo not shown) [compound 8] registered a maximal emission wavelength of 592 nm and a maximal excitation wavelength of 570 nm. `CN(C)CCCC1(c2ccc(F)cc2)OCc2cc(-c3cccc(N)c3)ccc21` (stereo not shown) [compound 3]: the Ki on SERT was 10.4 nM.

B1: hDAT (Homo sapiens) (protein)
chain: MSKSKCSVGLMSSVVAPAKEPNAVGPKEVELILVKEQNGVQLTSSTLTNPRQSPVEAQDRETWGKKIDFLLSVIGFAVDLANVWRFPYLCYKNGGGAFLVPYLLFMVIAGMPLFYMELALGQFNREGAAGVWKICPILKGVGFTVILISLYVGFFYNVIIAWALHYLFSSFTTELPWIHCNNSWNSPNCSDAHPGDSSGDSSGLNDTFGTTPAAEYFERGVLHLHQSHGIDDLGPPRWQLTACLVLVIVLLYFSLWKGVKTSGKVVWITATMPYVVLTALLLRGVTLPGAIDGIRAYLSVDFYRLCEASVWIDAATQVCFSLGVGFGVLIAFSSYNKFTNNCYRDAIVTTSINSLTSFSSGFVVFSFLGYMAQKHSVPIGDVAKDGPGLIFIIYPEAIATLPLSSAWAVVFFIMLLTLGIDSAMGGMESVITGLIDEFQLLHRHRELFTLFIVLATFLLSLFCVTNGGIYVFTLLDHFAAGTSILFGVLIEAIGVAWFYGVGQFSDDIQQMTGQRPSLYWRLCWKLVSPCFLLFVVVVSIVTFRPPHYGAYIFPDWANALGWVIATSSMAMVPIYAAYKFCSLPGSFREKLAYAIAPEKDRELVDRGEVRQFTLRHWLKV
For B1, in data set [1], the Km was 1010[909;1120] nM.

A word on the Ki: it is a dissociation constant, usually derived from enzyme kinetics or from competition with a known ligand.
